These results are taken from US7981912B2, “Indole acetic acids exhibiting CRTH2 receptor antagonism and uses thereof” (Wyeth LLC, priority 2004, dated 2011).

Where only a bound is given, the exact number is not on record here.

In the test the target is T1, human CRTH2 (Homo sapiens, UniProt Q9Y5Y4).
T1 sequence (Q9Y5Y4 1-395): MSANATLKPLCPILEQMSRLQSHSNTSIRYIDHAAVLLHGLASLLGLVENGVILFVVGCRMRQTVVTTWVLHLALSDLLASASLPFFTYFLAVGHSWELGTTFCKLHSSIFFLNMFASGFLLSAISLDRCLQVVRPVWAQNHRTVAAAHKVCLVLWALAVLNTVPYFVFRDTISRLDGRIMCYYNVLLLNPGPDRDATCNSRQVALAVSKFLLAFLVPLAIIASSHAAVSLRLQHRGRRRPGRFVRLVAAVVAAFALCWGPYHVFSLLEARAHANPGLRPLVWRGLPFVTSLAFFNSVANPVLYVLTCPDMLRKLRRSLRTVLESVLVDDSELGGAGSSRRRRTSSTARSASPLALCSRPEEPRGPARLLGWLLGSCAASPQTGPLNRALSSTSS
The experiment in a line: CRTH-2 binding assay (scintillation proximity assay, inhibition of 3H-PGD2 binding). The arrangement: expressed in transfected cells; host or cells: HEK 293EBNA-hCRTH2 (membrane preparation). Conditions: inhibition of 3H-PGD2 (3.6 nM) binding to HEK 293EBNA-hCRTH2 membranes; Ki calculated from IC50. The method, then: A CRTH2 binding assay was developed to measure the ability of compounds to inhibit the binding of PGD2 to human CRTH2 using a scintillation proximity assay.
Membranes containing hCRTH2 receptors were prepared from HEK 293EBNA-hCRTH2 cells (a HEK 293EBNA cell line stably expressing human CRTH2). The cells were grown to confluency, harvested and washed with PBS. The cells were resuspended in 10 mM Hepes pH 7.4, 1 mM EDTA and protease inhibitors and incubated for 30 min on ice. The cells were homogenized and centrifuged for 10 min at 1000×g. The supernate was centrifuged for 30 min at 100,000×g and the membrane pellet was then resusupended in 10 mM Hepes pH 7.4 and 1 mM EDTA. The protein concentration of the membrane preparation was determined by Bradford assay (Bio-Rad).
The ability of compounds to inhibit the interaction of PGD2 to human CRTH2 was determined at seven compound concentrations. Compounds were serially diluted in DMSO then diluted into CRTH2 buffer without glycerol (10 mM Hepes pH 7.4, 1 mM EDTA, 10 mM MnCl2) to six times the final desired concentration. 20 μL of the diluted compounds were transferred into non-surface binding 96 well plates (Corning). Each concentration was done in triplicate. In addition to test compounds, each plate contained 12 control wells. Six of these wells contained 20 μL of CRTH2 buffer without glycerol. These wells were used to measure total binding. Six wells contained 20 μL of CRTH2 buffer without glycerol plus 1.5 mM indomethacin. These wells were used to measure non-specific binding. Next, HEK 293EBNA-hCRTH2 membranes were resuspended in CRTH2 buffer with glycerol (10 mM Hepes pH 7.4, 1 mM EDTA, 10 mM MnCl2, 25% glycerol) so that the final concentration was approximately 20 μg protein/100 μL. Polylysine coated yttrium silicate SPA beads (Amershamn) were added to the membrane mix to a concentration of 0.4 mg/100 μL and finally ^3H-PGD2 was added to the membrane/SPA bead mix to 3.6 nM. 100 μL of the membrane/SPA bead/^3H-PGD2 mix was added to each well of the non-surface binding plates containing the diluted compound plus controls. The plates were incubated for 2 hours at room temperature with shaking and then the plates were counted on a Microbeta scintillation counter (Perkin Elmer) for 1 min per well.
IC50 values were determined from the experimental results by nonlinear regression using Prism 4.0 software. The IC50 values were then used in conjunction with the […] for hCRTH2 and the ^3H-PGD2 concentration used in the experiment to calculate the Ki for each compound.
On to `Cc1c(C2=NN(Cc3ccccc3)C(=O)C3CC=CCC23)c2ccccc2n1CC(=O)O` (stereo not shown) [Example 71, [3-(3-Benzyl-4-oxo-3,4,4a,5,8,8a-hexahydro-phthalazin-1-yl)-2-methyl-indol-1-yl]-acetic acid], for which the inhibition constant (Ki) – broadly, a dissociation constant, usually derived from enzyme kinetics or from competition with a known ligand – was < 1000 nM.

Take `Cc1c(C2c3ccc(F)cc3S(=O)(=O)N2Cc2cccc(F)c2)c2ccccc2n1CC(=O)O` (stereo not shown) [Example 63, {3-[6-Fluoro-2-(3-fluoro-benzyl)-1,1-dioxo-2,3-dihydro-1H-1λ^6benzo[d]isothiazol-3-yl]-2-methyl-indol-1-yl}-acetic acid]: the inhibition constant Ki is < 1000 nM. The figure for `COc1ccc2c(c1)c(C1NS(=O)(=O)c3ccccc31)cn2CC(=O)O` (stereo not shown) [Example 4, [3-(1,1-Dioxo-2,3-dihydro-1H-1λ^6-benzo[d]isothiazol-3-yl)-5-methoxy-indol-1-yl]-acetic acid] is < 10000 nM; for `Cc1c(C2=NN(Cc3cccc(C(F)(F)F)c3)S(=O)(=O)c3ccccc32)c2cc(F)ccc2n1CC(=O)O` [Example 85, {3-[2-(3-Trifluoromethyl-benzyl)-1,1-dioxo-1,2-dihydro-1λ^6-benzo[e][1,2,3]thiadiazin-4-yl]-5-fluoro-2-methyl-indol-1-yl}-acetic acid] it is < 1000 nM; for `O=C(O)Cn1cc(C2c3ccccc3S(=O)(=O)N2Cc2cccc(Oc3ccc(F)cc3)c2)c2ccccc21` (stereo not shown) [Example 31, (3-{2-[3-(4-Fluoro-phenoxy)-benzyl]-1,1-dioxo-2,3-dihydro-1H-1λ^6benzo[d]isothiazol-3-yl}-indol-1-yl)-acetic acid] it is < 1000 nM. The figure for `O=C(O)Cn1cc(C2c3ccccc3S(=O)(=O)N2Cc2ccccc2)c2ccccc21` (stereo not shown) [Example 28, [3-(2-Benzyl-1,1-dioxo-2,3-dihydro-1H-1λ^6-benzo[d]isothiazol-3-yl)-indol-1-yl]-acetic acid] is < 10000 nM; for `C=CCN1C(c2c(C)n(CC(=O)O)c3ccc(Cl)cc23)c2ccccc2S1(=O)=O` (stereo not shown) [Example 58, [3-(2-Allyl-1,1-dioxo-2,3-dihydro-1H-1λ^6-benzo[d]isothiazol-3-yl)-5-chloro-2-methyl-indol-1-yl]-acetic acid] it is < 1000 nM. The result for `COc1ccc2c(c1)c(C1c3ccccc3S(=O)(=O)N1Cc1ccc(F)cc1)cn2CC(=O)O` (stereo not shown) [Example 54, {3-[2-(4-Fluoro-benzyl)-1,1-dioxo-2,3-dihydro-1H-1λ^6-benzo[d]isothiazol-3-yl]-5-methoxy-indol-1-yl}-acetic acid] reads < 1000 nM. Take `Cc1c(C2c3ccccc3S(=O)(=O)N2Cc2cccc(C(F)(F)F)c2)c2ccccc2n1CC(=O)O` (stereo not shown) [Example 43, {3-[1,1-Dioxo-2-(3-trifluoromethyl-benzyl)-2,3-dihydro-1H-1λ^6-benzo[d]isothiazol-3-yl]-2-methyl-indol-1-yl}-acetic acid]: the Ki was < 1000 nM.

For the molecule `Cc1ccc2c(c1)c(C1c3ccccc3S(=O)(=O)N1C(C)C#N)cn2CC(=O)O` (stereo not shown) [Example 53, {3-[2-(Cyano-methyl-methyl)-1,1-dioxo-2,3-dihydro-1H-1λ^6-benzo[d]isothiazol-3-yl]-5-methyl-indol-1-yl}-acetic acid], the Ki is < 10000 nM. The figure for `Cc1c(C2=NN(CCc3ccccc3)C(=O)[C@@H]3CC=CC[C@H]23)c2ccccc2n1CC(=O)O` (stereo in doubt) [Example 72, [2-Methyl-3-(4-oxo-3-phenethyl-3,4,4a,5,8,8a-hexahydro-phthalazin-1-yl)-indol-1-yl]-acetic acid] is < 100 nM; for `Cc1c(C2c3ccccc3S(=O)(=O)N2c2ccccc2)c2ccccc2n1CC(=O)O` (stereo not shown) [Example 74, [3-(1,1-Dioxo-2-phenyl-2,3-dihydro-1H-1λ^6-benzo[d]isothiazol-3-yl)-2-methyl-indol-1-yl]-acetic acid] it is < 1000 nM. The figure for `COc1ccc2c(c1)c(C1c3ccccc3S(=O)(=O)N1CCc1ccccc1)cn2CC(=O)O` (stereo not shown) [Example 55, [3-(1,1-Dioxo-2-phenethyl-2,3-dihydro-1H-1λ^6-benzo[d]isothiazol-3-yl)-5-methoxy-indol-1-yl]-acetic acid] is < 10000 nM. The result for `CCOC(=O)CN1C(c2c(C)n(CC(=O)O)c3ccccc23)c2ccccc2S1(=O)=O` (stereo not shown) [Example 40, [3-(2-Ethoxycarbonylmethyl-1,1-dioxo-2,3-dihydro-1H-1λ^6benzo[d]isothiazol-3-yl)-2-methyl-indol-1-yl]-acetic acid] reads < 1000 nM; that for `CN1C(c2cn(CC(=O)O)c3ccccc23)c2ccccc2S1(=O)=O` (stereo not shown) [Example 14, [3-(2-Methyl-1,1-dioxo-2,3-dihydro-1H-1λ^6-benzo[d]isothiazol-3-yl)-indol-1-yl]-acetic acid], < 10000 nM; that for `Cc1c(C2=NN(CCC(C)C)S(=O)(=O)c3ccccc32)c2ccccc2n1CC(=O)O` [Example 23, {2-Methyl-3-[2-(3-methyl-butyl)-1,1-dioxo-1,2-dihydro-1λ^6-benzo[e][1,2,3]thiadiazin-4-yl]-indol-1-yl}-acetic acid], < 100 nM. Turning to `O=C(O)Cn1cc(C2c3ccccc3S(=O)(=O)N2Cc2csc(-c3cccs3)n2)c2ccccc21` (stereo not shown) [Example 33, {3-[1,1-Dioxo-2-(2-thiophen-2-yl-thiazol-4-ylmethyl)-2,3-dihydro-1H-1λ^6-benzo[d]isothiazol-3-yl]-indol-1-yl}-acetic acid], the Ki was < 1000 nM. The figure for `Cc1c(C2=NN(Cc3cccc(Cl)c3)S(=O)(=O)c3ccccc32)c2cc(F)ccc2n1CC(=O)O` [Example 77, {3-[2-(3-Chloro-benzyl)-1,1-dioxo-1,2-dihydro-1λ^6-benzo[e][1,2,3]thiadiazrn-4-yl]-5-fluoro-2-methyl-indol-1-yl}-acetic acid] is < 1000 nM; for `O=C(O)Cn1cc(C2NS(=O)(=O)c3ccccc32)c2ccccc21` (stereo not shown) [Example 1, [3-(1,1-Dioxo-2,3-dihydro-1λ^6-benzo[d]isothiazol-3-yl)-indol-1-yl]-acetic acid] it is < 10000 nM; for `Cc1c(-c2nn(CCOc3ccc(Cl)cc3)c(=O)c3ccccc23)c2cc(Cl)ccc2n1CC(=O)O` [Example 25, (5-Chloro-3-{3-[2-(4-chloro-phenoxy)-ethyl]-4-oxo-3,4-dihydro-phthalazin-1-yl}-2-methyl-indol-1-yl)-acetic acid] it is < 100 nM. With `Cc1c(-c2ccc(=O)n(Cc3ccccc3)n2)c2cc(Cl)ccc2n1CC(=O)O` [Example 21, [3-(1-Benzyl-6-oxo-1,6-dihydro-pyridazin-3-yl)-5-chloro-2-methyl-indol-1-yl]-acetic acid], the Ki was < 100 nM. The figure for `Cc1c(C2NS(=O)(=O)c3ccccc32)c2ccccc2n1CC(=O)O` (stereo not shown) [Example 3, [3-(1,1-Dioxo-2,3-dihydro-1H-1λ^6-benzo[d]isothiazol-3-yl)-2-methyl-indol-1-yl]-acetic acid] is < 10000 nM; for `C=CCN1C(c2c(C)n(CC(=O)O)c3ccccc23)c2ccccc2S1(=O)=O` (stereo not shown) [Example 45, [3-(2-Allyl-1,1-dioxo-2,3-dihydro-1H-1λ^6-benzo[d]isothiazol-3-yl)-2-methyl-indol-1-yl]-acetic acid] it is < 1000 nM; for `Cc1c(-c2nn(Cc3nc4ccccc4s3)c(=O)c3ccccc23)c2cc(Cl)ccc2n1CC(=O)O` [Example 26, [3-(3-Benzothiazol-2-ylmethyl-4-oxo-3,4-dihydro-phthalazin-1-yl)-5-chloro-2-methyl-indol-1-yl]-acetic acid] it is < 100 nM. The result for `Cc1c(C2=NN(Cc3ccccc3)S(=O)(=O)c3ccccc32)c2cc(F)ccc2n1CC(=O)O` [Example 75, [3-(2-Benzyl-1,1-dioxo-1,2-dihydro-1λ^6-benzo[e][1,2,3]thiadiazin-4-yl)-5-fluoro-2-methyl-indol-1-yl]-acetic acid] reads < 1000 nM.
